Measurements reported in patent US20250002463A1, “NEW SALT FORMS OF AMILORIDE AND ITS DERIVATIVES FOR PHARMACEUTICAL USE” (PSOMRI Holding AB, priority 2021, published 2025).
Where “and” joins values, the source holds several entries; their conditions need not be identical. Equal entries are not always repeated. One block for each molecule: values may come before it.

Key:
[1] = Hygroscopicity by Dynamic Vapor Sorption (DVS); assay type: physicochemical; details: for classification of hygroscopic behaviour: based on water vapour uptake at 25° C./80% RH; for water vapour uptake: 25° C./80% RH, first adsorption cycle
Method: The hygroscopic behaviour of the salts was evaluated through Dynamic Vapor Sorption (DVS) measurements with an RH profile 40-95-0-40% at 25° C. and a dm/dt of 0.002. The classification of the hygroscopic behaviour is based on the water vapour uptake at 25° C./80% RH in first adsorption cycle of sorption isotherm.

[2] = Polymorphism: solid forms found in salt screen by HT-XRPD; assay type: physicochemical; details: Example 1 salt screen in MeOH, DME, THF
Method: (§1) The precipitated solids were analyzed by high throughput X-ray powder diffractometry (HT XRPD). Liquid phases (both solutions and mother liquors) were evaporated at ambient conditions and the residual solids were analyzed by HT XRPD.
The salt screen experiments were carried out in methanol (MeOH), 1,2-dimethoxyethane (DME) and tetrahydrofuran (THF).

[3] = Physical stability under Accelerated Aging Conditions (AAC, 40° C./75% RH, 2 days), HT-XRPD; details: for Physically stable after AAC: Example 1; for Physical Stability: AAC 40° C./75% RH, 2 days, re-analyzed by HT-XRPD
[4] = Aqueous solubility at RT, Example 2 (water aliquot addition up to 1600 μL); assay type: physicochemical; details: for dissolution in water: water aliquots up to 1600 μL; for dissolution in water after heating: suspension in 1600 μL water heated to 50° C. for 15 min
Method: Aqueous solubility was determined for the anhydrous and hydrated salt forms, as well as for the salts found after the stability study. Aliquots of water were added to the solid salts until dissolution occurred or 1600 μL of water was added. The lactate salt was taken along in the solubility studies as a reference. […] The results (in mg/mL free base dissolved for better comparison between salt forms) of the solubility determination performed in water are reported in Table 9.
Upon completion of the solubility determination, the remaining solids were separated from the liquid phases and allowed to air dry. Dried solids were analyzed by HT-XRPD.

[5] = Crystallinity of salt forms by HT-XRPD; assay type: physicochemical; details: salt screen solid forms
Method: as §1
XRPD patterns were obtained using the Ardena T2 high-throughput XRPD set-up. The plates were mounted on a Bruker General Area Detector Diffraction System (GADDS) equipped with a VÅNTEC-500 gas area detector corrected for intensity and geometric variations. The calibration of the measurement accuracy (peaks position) was performed using NIST SRM1976 standard (Corundum).
No background subtraction or curve smoothing was applied to the XRPD patterns.

physchem = experiment: physchem
Method: The aqueous solubility of the salts was estimated qualitatively by the solvent aliquot addition method. Aliquots of water up to 500-600 μL were added to approximately 5 mg of salt. The solubility of the free base was also estimated.
The suspensions were let equilibrating at room temperature for 24 h. Afterwards, solids were separated from the liquid phases. The liquid phases were filtered and analyzed by HPLC to determine the solubility. The pH of solutions/mother liquors was also measured.
Suspensions of the two salts were prepared in water with a concentration of 9-10 mg/mL. The mixtures were let equilibrating at RT for 24 h. Afterwards, solids were separated from the liquid phases. The liquid phases were filtered and analyzed by HPLC to determine the solubility. The pH of mother liquors was also measured.

[6] = Kinetic and thermodynamic solubility in water at 37° C. (1 h and 18 h, UPLC)
[7] = Intrinsic dissolution rate (rotating disc, μDiss) in water and FaSSIF; assay type: physicochemical; details: for IDR (mg/cm^2/min) Individual: single disc
Method: Rotating disc intrinsic dissolution determinations were performed with a μDiss apparatus (Pion, USA) equipped with 6 independent glass fiber probes each connected to a diode area. Before the start of the experiment the probes were calibrated using the spectrum of a Mercury 362 nm pen-ray lamp. Discs were prepared in a passivated aluminum dye with a mini-IDR press (Heath Scientific, UK).
Six dilutions of benzamil lactate salt were prepared in the dissolution media in the range from 0 to 0.5 mg/mL, and the solutions were stirred with a cross-shaped magnetic stirrer. These dilutions were used for the calibration curve which is used for the calculation of the amount of benzamil in solution. Moreover, the solutions were used to select the wavelength at which the samples were to be measured and to select the proper path length.
The dyes were placed in their Teflon holder magnet stirrer and placed into 20 mL glass vials. Before to the sample measurement, a blank of each media was taken in the respective channel. The experiment started by the gentle addition of the pre-warmed dissolution media. Vials were incubated at 37° C. under continuous stirring at 100 rpm for a maximum of 4 h. UV absorption was measured with the in-line probes at regular intervals. Upon completion of the experiment the pH of the solution was determined. Concentrations of API in solution were calculated with use of the calibration curve and plotted against time. Dissolution rates were calculated over the linear parts of the curves. All dissolution rate experiments were done in triplicate except for TFA1 which were done in duplicate due to the lack of material.

[8] = Physio-chemical stability study, open container 25° C./60% RH and 40° C./75% RH (UPLC, TGMS, HT-XRPD); assay type: physicochemical; details: for UPLC 1 week / UPLC 3 weeks / UPLC 3 days: chemical purity
Method: Open container at 25° C. and 60% RH • 2. Open container at 40° C. and 75% RH

[9] = Example 2, 40° C./75% RH for 2 days
[10] = water, 37° C., 30 mg/ml suspension
[11] = open container 25° C. and 60% RH
[12] = open container 40° C. and 75% RH

Structure (SMILES): NC(=NC(=O)c1nc(Cl)c(N)nc1N)NCc1ccccc1.O=[N+]([O-])O [NIT5]
classification of hygroscopic behaviour [1]: slightly hygroscopic | Polymorphism [2]: Yes

Structure (SMILES): N=C(NCc1ccccc1)NC(=O)c1nc(Cl)c(N)nc1N.O=C(O)c1ccccc1 [BNZ1]
water vapour uptake [1]: 0.1% | classification of hygroscopic behaviour [1]: non hygroscopic | Physically stable after AAC ([3]; 40° C./75% RH for 2 days): physically stable and Yes | Polymorphism [2]: Yes

Structure (SMILES): CS(=O)(=O)O.NC(=NC(=O)c1nc(Cl)c(N)nc1N)NCc1ccccc1 [MES1]
Physical Stability [3]: Stable | physical stability upon exposure to AAC [3, 9]: physically stable | aqueous solubility compared with starting material (LAC1) ([4]; RT): better solubility value than the starting material (LAC1) | behaviour after full dissolution in water ([4]; RT): precipitation was observed after full dissolution | dissolution in water ([4]; RT): Full dissolution | behaviour in repeated aqueous solubility determination ([4]; aiming for 50 mg/ml, RT): quickly dissolved at RT and after 15 min it crashed out again as a white solid | Crystallinity [5]: Good

Structure (SMILES): NC(=NC(=O)c1nc(Cl)c(N)nc1N)NCc1ccccc1.O=P(O)(O)O [PHO2]
classification of hygroscopic behaviour [1]: slightly hygroscopic | Physically stable after AAC ([3]; 40° C./75% RH for 2 days): physically stable and Yes | Polymorphism [2]: Yes

Structure (SMILES): CCC(=O)O.NC(=NC(=O)c1nc(Cl)c(N)nc1N)NCc1ccccc1 [PRO2]
dissolution in water after heating [4]: dissolved | Crystallinity [5]: Moderate

Structure (SMILES): Br.N=C(NCc1ccccc1)NC(=O)c1nc(Cl)c(N)nc1N [HBR1]
Physical Stability [3]: Stable | physical stability upon exposure to AAC [3, 9]: physically stable | dissolution in water after heating [4]: dissolved | Crystallinity [5]: Moderate

Structure (SMILES): Cl.NC(=NC(=O)c1nc(Cl)c(N)nc1N)NCc1ccccc1 [Mono-HCl (ref)]
Concentration FB (physchem): 2400 to 3000 µg/mL

Structure (SMILES): CCCC(=O)O.NC(=NC(=O)c1nc(Cl)c(N)nc1N)NCc1ccccc1 [BUT1]
Physical Stability [3]: Stable | physical stability upon exposure to AAC [3, 9]: physically stable | dissolution in water ([4]; RT): Full dissolution | Crystallinity [5]: Good

Structure (SMILES): CC(=O)O.NC(=NC(=O)c1nc(Cl)c(N)nc1N)NCc1ccccc1 [ACA1]
water vapour uptake [1]: 0.1% | classification of hygroscopic behaviour [1]: non hygroscopic | Physically stable after AAC ([3]; 40° C./75% RH for 2 days): physically stable and Yes | Polymorphism [2]: Yes | Water solubility (physchem; Example 1, RT, aliquot addition (ranges) or HPLC after 24 h, not in Table 3): 15000 to 19000 µg/mL

Structure (SMILES): Cc1ccc(S(=O)(=O)O)cc1.NC(=NC(=O)c1nc(Cl)c(N)nc1N)NCc1ccccc1 [TOS1]
classification of hygroscopic behaviour [1]: slightly hygroscopic | Physically stable after AAC ([3]; 40° C./75% RH for 2 days): physically stable and Yes | Polymorphism [2]: Unclear

Structure (SMILES): NC(=NC(=O)c1nc(Cl)c(N)nc1N)NCc1ccccc1.O=CO [FOR3]
dissolution in water after heating [4]: dissolved | Crystallinity [5]: Good

Structure (SMILES): N=C(NCc1ccccc1)NC(=O)c1nc(Cl)c(N)nc1N.O=C(O)c1ccccc1 [BNZ2]
classification of hygroscopic behaviour [1]: slightly hygroscopic | Physically stable after AAC ([3]; 40° C./75% RH for 2 days): physically stable and Yes | Polymorphism [2]: Yes

Physically stable? ([3]; AAC, 2 days at 40° C. and 75% RH, solids from thermocycling): Yes | physical stability upon exposure to AAC ([3]; Example 3 thermocycling solids, 2 days at 40° C. and 75% RH): physically stable | XRPD 1 h Amb. ([6]; residual solid after 1 h in water at 37° C., ambient-dried): TFA2 | XRPD 1 h Vac. ([6]; residual solid after 1 h in water at 37° C., vacuum-dried): TFA2 | XRPD 18 h Amb. ([6]; residual solid after 18 h in water at 37° C., ambient-dried): TFA2 | XRPD 18 h Vac. ([6]; residual solid after 18 h in water at 37° C., vacuum-dried): TFA2 | pH after 10 min [6, 10]: 6.0 | pH after 1 h [6, 10]: 6.2 | Solubility (mg/mL) 1 h ([6]; water, 37° C., 1 h (kinetic), UPLC): 2.6 mg/mL | Solubility (mg/mL) 18 h ([6]; water, 37° C., 18 h (thermodynamic), UPLC): 1.6 mg/mL | IDR (mg/cm^2/min) Average ([7]; FaSSIF, 37° C., 100 rpm): 0.14 ± 0.004 mg/cm^2/min | IDR (mg/cm^2/min) Average ([7]; Water, 37° C., 100 rpm): 0.13 ± 0.1 mg/cm^2/min | state of tablet ([7]; after about 4 h, 37° C.): still not completely dissolved | IDR difference to LAC1 ([7]; in FaSSIF): about 4 fold | Intrinsic Dissolution Rate (IDR) ([7]; water, 37° C., 100 rpm, linear part (LAC1 1 to 36 min; TFA 10-100 min)): 0.13±0.01 mg/cm^2/min | UPLC t0 ([8]; chemical purity at start of stability study): 99.1% and 100% | UPLC 1 week [8, 11]: 99.9% and 100% | UPLC 3 weeks [8, 11]: 100% | UPLC 3 days [8, 11]: 99.9% and 100% | UPLC 1 week [8, 12]: 100% | UPLC 3 weeks [8, 12]: 100% | UPLC 3 days [8, 12]: 99.9% and 100% | physical and chemical stability ([8]; incubation for 3 weeks at 25° C./60% RH and 40° C./75% RH): physically and chemically stable | TGMS 1 week [8, 11]: 0.1% water and <0.1 % water | XRPD 1 week [8, 11]: TFA2 and TFA1 | TGMS 3 weeks [8, 11]: <0.1% water | XRPD 3 weeks [8, 11]: TFA2 | XRPD 3 days [8, 11]: TFA2 and TFA1 | TGMS 1 week [8, 12]: 0.1% water and <0.1 % water | XRPD 1 week [8, 12]: TFA2 and TFA1 | TGMS 3 weeks [8, 12]: <0.1% water | XRPD 3 weeks [8, 12]: TFA2 | XRPD 3 days [8, 12]: TFA2 and TFA1 | XRPD t0 ([8]; start of stability study): TFA2 and TFA1
Structure (SMILES): NC(=NCc1ccccc1)NC(=O)c1nc(Cl)c(N)nc1N.O=C(O)C(F)(F)F [TFA2]
IDR (mg/cm^2/min) Individual ([7]; FaSSIF, 37° C., 100 rpm): 0.145 mg/cm^2/min and 0.143 mg/cm^2/min and 0.138 mg/cm^2/min | IDR (mg/cm^2/min) Individual ([7]; Water, 37° C., 100 rpm): 0.116 mg/cm^2/min and 0.143 mg/cm^2/min and 0.130 mg/cm^2/min

Structure (SMILES): NC(=NC(=O)c1nc(Cl)c(N)nc1N)NCc1ccccc1.O=C(O)CC(=O)O [MAO1]
Physical Stability [3]: Stable | physical stability upon exposure to AAC [3, 9]: physically stable | dissolution in water after heating [4]: dissolved | Crystallinity [5]: Good
